The values below are quoted from earlier work in patent US20070281009A1, “N-Acetylglucosamine Tablet Disintegrating In Oral Cavity And Process For Producing The Same” (Yaizu Suisankagaku Industry Co., Ltd., priority 2004, published 2007).

Series [1] has as its system arthropathy. The conditions noted are these: human, 500 mg/day or 1,000 mg/day dissolved in milk.
The test system of series [2] is skin beauty. The note with it: human, oral, 1,000 mg/day.
Series [3] relates to synthesis of hyaluronic acid.

For the compound `CC(=O)N[C@H]1C(O)O[C@H](CO)[C@@H](O)[C@@H]1O` (stereo partly drawn) [N-acetylglucosamine], the “Effect of ameliorating arthropathy” value in series [1] is given as “confirmed to provide an effect of ameliorating arthropathy”. Besides, the “Effect on enhancing skin beauty” value in series [2] was “effective”.

`CC1=C(/C=C/C(C)=C/C=C/C(C)=C/C=C/C=C(C)/C=C/C=C(C)/C=C/C2=C(C)CCCC2(C)C)C(C)(C)CCC1` [β-carotene]: the “Ability to promote synthesis of hyaluronic acid” value in series [3] is recorded as “known to have an ability to promote synthesis of hyaluronic acid”.
